Measurements published in publication PMC8698791, “Identification, Synthesis, Conformation and Activity of an Insulin-like Peptide from a Sea Anemone” (Biomolecules, 2021).
Positions of bridges follow the written chain, without caps; N, C: chain ends. Chains are numbered I, II in the order given. No end group written: not given here.

Key:
human IGF-1R = target: T1, human IGF-1R (Homo sapiens, UniProt P08069); assay: Competition binding assay with europium-labelled IGF-I on solubilized, immunocaptured IGF-1R; settings: 16 h at 4 °C, n = 2 assays
T1 construct: expressed in transfected cells; host or cells: P6 cells (BALB/c3T3 mouse fibroblasts overexpressing IGF-IR)
T1 sequence (P08069 31-736 limits assumed): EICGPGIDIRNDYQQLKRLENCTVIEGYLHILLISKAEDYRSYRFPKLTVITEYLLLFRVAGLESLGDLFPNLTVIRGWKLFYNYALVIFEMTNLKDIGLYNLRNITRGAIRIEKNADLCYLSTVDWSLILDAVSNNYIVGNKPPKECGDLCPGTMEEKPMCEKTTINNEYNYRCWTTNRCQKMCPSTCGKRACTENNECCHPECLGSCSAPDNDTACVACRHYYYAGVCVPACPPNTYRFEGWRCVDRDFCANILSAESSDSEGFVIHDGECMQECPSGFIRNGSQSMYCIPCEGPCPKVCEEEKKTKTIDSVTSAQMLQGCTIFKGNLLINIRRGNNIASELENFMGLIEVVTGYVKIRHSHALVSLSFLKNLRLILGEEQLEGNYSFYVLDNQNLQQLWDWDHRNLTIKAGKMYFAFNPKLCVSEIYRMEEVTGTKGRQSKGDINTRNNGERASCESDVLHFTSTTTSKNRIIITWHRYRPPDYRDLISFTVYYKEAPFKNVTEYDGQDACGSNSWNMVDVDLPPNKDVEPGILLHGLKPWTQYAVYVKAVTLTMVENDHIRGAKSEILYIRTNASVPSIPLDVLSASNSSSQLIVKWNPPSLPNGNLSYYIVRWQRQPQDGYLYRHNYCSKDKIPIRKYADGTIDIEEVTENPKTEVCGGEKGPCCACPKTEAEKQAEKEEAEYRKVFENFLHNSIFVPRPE
T1 sequence (P08069 741-1367 partner limits assumed): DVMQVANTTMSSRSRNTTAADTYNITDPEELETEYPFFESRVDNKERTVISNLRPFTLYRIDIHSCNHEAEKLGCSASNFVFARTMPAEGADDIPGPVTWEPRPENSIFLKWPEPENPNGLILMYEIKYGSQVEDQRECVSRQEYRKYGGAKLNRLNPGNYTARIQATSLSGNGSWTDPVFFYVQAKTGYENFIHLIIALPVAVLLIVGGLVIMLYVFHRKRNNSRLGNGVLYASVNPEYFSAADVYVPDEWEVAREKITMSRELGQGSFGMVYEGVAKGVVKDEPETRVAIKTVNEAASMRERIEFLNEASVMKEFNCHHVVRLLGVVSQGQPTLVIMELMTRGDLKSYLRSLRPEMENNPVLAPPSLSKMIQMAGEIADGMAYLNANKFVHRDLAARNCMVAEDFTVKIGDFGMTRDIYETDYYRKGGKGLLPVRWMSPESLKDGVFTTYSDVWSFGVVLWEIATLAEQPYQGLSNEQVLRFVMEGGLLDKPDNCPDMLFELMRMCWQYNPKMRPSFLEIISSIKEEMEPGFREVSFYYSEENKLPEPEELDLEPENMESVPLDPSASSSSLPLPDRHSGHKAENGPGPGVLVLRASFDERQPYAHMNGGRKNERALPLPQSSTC
Procedure: (§1) IGF-IR and IR-B were solubilized from cells using lysis buffer (20 mM HEPES, 150 mM NaCl, 1.5 mM MgCl2, 10% (v/v) glycerol, 1% (v/v) Triton X-100, 1 mM EGTA (pH 7.5)) for 1 h at 4 °C, and lysates were centrifuged for 10 min at 3500 rpm. Solubilized IGF-1R or IR-B (100 µL) was used to coat each well of a white Greiner Lumitrac 600 plate previously coated with 24–31 anti-human IGF-1R antibody or 83-7 anti-human IR antibody. […] Wells were washed three times with 20 mM Tris, 150 mM NaCl, 0.1% (v/v) Tween 20, and then DELFIA enhancement solution (100 µL) was added. Time-resolved fluorescence was measured with 340 nm excitation and 612 nm emission filters using a Victor X4, 2030 Multilabel Reader (Perkin Elmer). All assays were repeated at least 3 times with 3 technical replicates each, except for the IlO1_i1 peptide binding IGF-IR, where 2 assays were conducted. Mean IC50 values were calculated using the statistical software package Prism v9.0.0 (GraphPad Software) after curve fitting with a nonlinear regression (one-site) model.

[1] = target: T2, human insulin receptor isoform B (IR-B) (Homo sapiens, UniProt P06213); assay: Competition binding assay with europium-labelled insulin on solubilized, immunocaptured IR-B; settings: even at 10^−5 M concentration; 16 h at 4 °C, n ≥ 3
T2 construct: expressed in transfected cells; host or cells: IR-B cells (IGF-IR null mouse fibroblasts overexpressing human IR-B)
T2 sequence (P06213 28-758 limits assumed): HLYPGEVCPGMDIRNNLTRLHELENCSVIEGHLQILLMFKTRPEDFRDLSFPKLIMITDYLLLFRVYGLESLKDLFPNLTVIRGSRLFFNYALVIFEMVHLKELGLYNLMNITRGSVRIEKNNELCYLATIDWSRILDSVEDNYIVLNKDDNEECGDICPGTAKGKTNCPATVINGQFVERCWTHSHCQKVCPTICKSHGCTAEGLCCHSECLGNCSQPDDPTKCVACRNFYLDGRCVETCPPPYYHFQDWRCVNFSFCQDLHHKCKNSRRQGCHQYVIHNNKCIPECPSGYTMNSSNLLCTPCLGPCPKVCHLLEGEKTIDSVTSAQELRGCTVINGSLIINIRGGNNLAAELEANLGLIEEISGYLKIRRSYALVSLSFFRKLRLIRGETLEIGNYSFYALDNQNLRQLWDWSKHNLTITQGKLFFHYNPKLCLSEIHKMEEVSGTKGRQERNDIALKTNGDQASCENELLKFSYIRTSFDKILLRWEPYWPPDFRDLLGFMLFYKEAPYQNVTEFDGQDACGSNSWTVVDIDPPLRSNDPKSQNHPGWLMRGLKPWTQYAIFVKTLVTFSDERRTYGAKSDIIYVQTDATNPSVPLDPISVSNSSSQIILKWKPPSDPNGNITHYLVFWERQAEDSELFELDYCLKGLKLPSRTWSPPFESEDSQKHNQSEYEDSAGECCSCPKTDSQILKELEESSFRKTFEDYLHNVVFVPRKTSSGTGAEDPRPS
T2 sequence (P06213 763-1382 partner limits assumed): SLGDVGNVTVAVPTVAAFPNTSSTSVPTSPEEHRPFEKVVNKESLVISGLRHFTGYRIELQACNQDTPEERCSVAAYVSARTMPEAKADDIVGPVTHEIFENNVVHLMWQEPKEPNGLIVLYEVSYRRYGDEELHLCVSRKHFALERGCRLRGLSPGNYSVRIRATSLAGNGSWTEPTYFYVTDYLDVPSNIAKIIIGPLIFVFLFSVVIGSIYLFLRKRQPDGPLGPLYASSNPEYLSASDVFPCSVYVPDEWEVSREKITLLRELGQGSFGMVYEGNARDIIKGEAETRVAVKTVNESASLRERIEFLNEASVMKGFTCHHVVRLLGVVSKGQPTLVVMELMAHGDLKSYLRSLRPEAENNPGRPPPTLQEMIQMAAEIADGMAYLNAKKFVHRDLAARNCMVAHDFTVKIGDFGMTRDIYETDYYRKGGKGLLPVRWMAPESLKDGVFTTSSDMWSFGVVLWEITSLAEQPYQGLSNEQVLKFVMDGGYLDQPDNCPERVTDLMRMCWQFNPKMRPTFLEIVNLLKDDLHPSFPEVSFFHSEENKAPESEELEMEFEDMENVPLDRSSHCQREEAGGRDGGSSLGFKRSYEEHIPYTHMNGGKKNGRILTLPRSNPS
Procedure: as §1

rKV1.2 = assay: Two-electrode voltage-clamp on Xenopus oocytes expressing KV1.2; format: cell-based, rat; settings: 8 µM peptide, Xenopus laevis oocytes, 18–22 °C, n ≥ 3
From the text: (§2) For the expression of KV channels (mammalian rKV1.2, hKV1.3, rKV2.1, hKV3.1, rKV4.2, hKV7.2/hKV7.3, hKV10.1, hERG and Shaker IR from the fruit fly Drosophila melanogaster), NaV channels (mammalian rNaV1.2, rNaV1.3, rNaV1.4, hNaV1.5, rNaV1.6, hNaV1.7, BgNaV from the cockroach Blattella germanica, as well as the auxiliary subunits rβ1, hβ1), and the hCaV3.1 channel in Xenopus oocytes, the linearized plasmids were transcribed using the T7 or SP6 mMESSAGE-mMACHINE transcription kit (Ambion, Carlsbad, CA, USA). The harvesting of stage V–VI oocytes from an anaesthetized female Xenopus laevis frog was described previously and was in compliance with the regulations of the European Union (EU) concerning the welfare of laboratory animals as declared in Directive 2010/63/EU. The use of X. laevis oocytes was approved by the Animal Ethics Committee of the KU Leuven with the licence number P186/2019. […]
(§3) Two-electrode voltage-clamp recordings were performed at room temperature (18–22 °C) using a Geneclamp 500 amplifier (Molecular Devices, Downingtown, PA, USA) controlled by a pClamp data acquisition system (Axon Instruments, Union City, CA, USA). Whole cell currents from oocytes were recorded 1–7 days after injection. […]

hKV3.1 = assay: Two-electrode voltage-clamp on Xenopus oocytes expressing KV3.1; format: cell-based, human; settings: 8 µM peptide, Xenopus laevis oocytes, 18–22 °C, n ≥ 3
From the text: as §2, §3

hKV1.3 = assay: Two-electrode voltage-clamp on Xenopus oocytes expressing KV1.3; format: cell-based, human; settings: 8 µM peptide, Xenopus laevis oocytes, 18–22 °C, n ≥ 3
From the text: as §2, §3

rNaV1.4 = assay: Two-electrode voltage-clamp on Xenopus oocytes expressing NaV1.4; format: cell-based, rat; settings: 8 µM peptide, Xenopus laevis oocytes, 18–22 °C, n ≥ 3
From the text: as §2, §3

KV11.1 (hERG) = assay: Two-electrode voltage-clamp on Xenopus oocytes expressing KV11.1 (hERG); format: cell-based; settings: human, Xenopus laevis oocytes expressing KV11.1 (hERG), pH 7.4, 8 µM peptide, 18–22 °C, n ≥ 3, read-out: Inhibitory activity on KV11.1 (hERG) current
From the text: as §2, §3

I: INESPQTNIDYRICGDQITQKYTELCGNPAAG / II: TDIVEECCAEGCKAEEVKEYCI (disulfide I:14-II:8, I:26-II:21, II:7-II:12) [IlO1_i1]
Ability to compete with europium-labelled IGF-I binding to the IGF-1R (human IGF-1R): did not compete
Ability to compete with europium-labelled insulin bound to IR-B [1]: unable to compete
Inhibitory activity on KV1.2 current (rKV1.2): 3.6 ± 1.9%
Inhibitory activity on KV3.1 current (hKV3.1): 12.7 ± 2.6%
Inhibitory activity on KV1.3 current (hKV1.3): 11.9 ± 0.9%
Inhibitory activity on NaV 1.4 current (rNaV1.4): 14.2 ± 2.2%
inhibition at 8 µM (KV11.1 (hERG)): 30.5 ± 1.6%
